Data from US4873243A, “Derivatives of 3-imino-pyridazine, process for obtaining them and pharmaceutical compositions containing them” (SANOFI, priority 1985, dated 1989).
Where a name gives a salt, the structure may show the parent alone. Read-outs that look alike come from different tables or passages of the source.

Assays:
[1] = target: GABA post-synaptic receptor; experiment: Displacement of tritiated GABA from its post-synaptic receptor (Enna and Snyder method), suspension of synaptic membrane; type: binding; conditions: in vitro, tritiated GABA 2.9 nM final concentration
Protocol: The therapeutic activity of the products according to the invention has been studied.
The study was carried out in accordance with the method of ENNA and SNYDER (Brain Research 100, 81-97, 1975). The experiment was carried out in vitro in the presence of a suspension of synaptic membrane and tritiated GABA at a final concentration of 2.9 nM.
The results are expressed in Inhibit Concentration 50 (IC50), i.e. the micromolar concentration which inhibits 50% of the fixation of the GABA on its post-synaptic receptor.

[2] = system: reserpine-induced ptosis in the mouse; experiment: Antagonism of reserpine-induced ptosis in the mouse; type: in vivo; conditions: 100 mg/kg intraperitoneal; reserpine 2 mg/kg intravenous at the same time; female mice; one hour after administration
Protocol: The anti-depressant properties of the products according to the invention have been studied in the animal. The anti-depressant activity was assessed in the test of antagonism of reserpine-induced ptosis in the mouse.
The study was carried out on batches of 10 female mice weighing 20±1 g. The products to be studied were administered by the intraperitoneal route at the same time as the reserpine by the intravenous route at the dose of 2 mg/kg.
In parallel, a control batch received only the vehicle of administration of the product to be studied and the reserpine.
One hour after administration, the animals were observed individually. All the animals of the control batch presented ptosis. For the treated batches, the animals not presenting ptosis were counted and the percentage of the animals where the ptosis was antagonized were determined.

mouse = experiment: Acute toxicity in the mouse; type: in vivo; conditions: 100 mg/kg intraperitoneal
Source text: The products according to the invention may be administered by the oral route or by the injectable route.

[3] = read-out: IC50 (concentration which inhibits 50% of the fixation of the GABA on its post-synaptic receptor)

SMILES | IC50 [1, 3] | further results
N=c1ccc(-c2ccccc2)nn1Cc1cc(O)no1 [SR 95884] |  | IC50 ([1]; listed as 95884, read-out: IC50 (concentration which inhibits 50% of the fixation of the GABA on its post-synaptic receptor)): 1.8 µM
N=c1ccc(-c2ccsc2)nn1Cc1cc(O)no1 [SR 95893] | 1.6 µM | 
N=c1ccc(-c2ccccc2)nn1Cc1cc(O)no1 [SR 95812] |  | IC50 ([1]; listed as 95812, read-out: IC50 (concentration which inhibits 50% of the fixation of the GABA on its post-synaptic receptor)): 1.2 µM
Cc1cc(-c2ccccc2)nn(Cc2cc(O)no2)c1=N [SR 95538, 2-[(3-hydroxy 5-isoxazolyl)methyl]-3-imino-4-methyl-6-phenyl-2,3-dihydro-pyridazine, hydrobromide] | 1 µM | animals in which ptosis was antagonized (inhibits ptosis) [2]: 30%; sign of acute toxicity (mouse): no sign of acute toxicity

Second part, led by results:

IC50 [1, 3] | SMILES | further results
0.15 µM | N=c1ccc(-c2ccc(Cl)cc2)nn1Cc1cc(O)ns1 [SR 95885, 2-[(3-hydroxy-5-isothiazolyl)methyl]-3-imino-6-(4-chloro-phenyl)-2,3-dihydro-pyridazine, hydrobromide] | 
6.6 µM | Cc1nn(Cc2cc(O)ns2)c(=N)cc1-c1ccccc1 [SR 95886] | 
0.12 µM | N=c1c2ccccc2c(-c2ccccc2)nn1Cc1cc(O)no1 [SR 95894] | 
0.075 µM | N=c1ccc(-c2ccc3c(c2)OCO3)nn1Cc1cc(O)no1 [SR 95895] | 
